Patent publication US6355799B1, “Substituted benzene compounds, process for their preparation, and herbicidal and defoliant compositions containing them” (ISK Americas Incorporated, priority 1997, dated 2002)

How the values were obtained:
Type in all cases: in vivo
[1] = tested on: redroot pigweed (Amaranthus retroflexus, AMARE); experiment: Pre-emerge test, greenhouse herbicide activity screening; settings: phytotoxicity rating 0-100, 14 days after application
How it was run: (§1)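 Plants grown in 10 cm pots of sandy loam mix received acetone-dissolved compounds through a moving flat-fan nozzle. Doses ranged from 15 to 1000 g ai/ha. Pre-emerge pots were seeded one day earlier, post-emerge pots 8–21 days earlier. Fourteen days on, each pot was graded 0–100 for damage.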

[2] = tested on: barnyardgrass (Echinochloa crus-galli, ECHCG); experiment: as above; settings: phytotoxicity rating 0-100, 14 days after application
How it was run: as §1

[3] = tested on: common ragweed (Ambrosia artemisizfolia L., AMBEL); experiment: as above; settings: phytotoxicity rating 0-100, 14 days after application
How it was run: as §1

[4] = tested on: green foxtail (Setaria viridis, SETVI); experiment: as above; settings: phytotoxicity rating 0-100, 14 days after application
How it was run: as §1

[5] = tested on: ivyleaf morningglory (Ipomoea hederacea, IPOHE); experiment: as above; settings: phytotoxicity rating 0-100, 14 days after application
How it was run: as §1

[6] = tested on: johnsongrass (Sorghum halepense, SORHA); experiment: as above; settings: phytotoxicity rating 0-100, 14 days after application
How it was run: as §1

[7] = tested on: lambsquarters (Chenopodium album, CHEAL); experiment: as above; settings: phytotoxicity rating 0-100, 14 days after application
How it was run: as §1

[8] = tested on: large crabgrass (Digitaria sanguinalis, DIGSA); experiment: as above; settings: phytotoxicity rating 0-100, 14 days after application
How it was run: as §1

[9] = tested on: sicklepod (Cassia obtusifolia, CASOB); experiment: as above; settings: phytotoxicity rating 0-100, 14 days after application
How it was run: as §1

[10] = tested on: velvetleaf (Abutilon theophrasti, ABUTH); experiment: as above; settings: phytotoxicity rating 0-100, 14 days after application
How it was run: as §1

[11] = tested on: field corn (Zea mays L., var. Dekalb 535, CORN); experiment: Pre-emerge test, crop safety; settings: crop damage rating 0-100, 14 days after application
How it was run: (§2)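 Compounds in acetone were track-sprayed at 187 l/ha, 15–1000 g ai/ha, onto sandy loam pots. Pre-emerge seeds were sown one day before spraying, with surface watering afterwards. Post-emerge plants were at the 2–3 leaf stage and sprayed with 0.25% v/v non-ionic surfactant. Injury was rated 0–100 at 14 days.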

[12] = tested on: upland rice (Oryza sp., var. Tebonnet, RICE); experiment: Pre-emerge test, crop safety; settings: crop damage rating 0-100, 14 days after application
How it was run: as §2

[13] = tested on: barnyardgrass (Echinochloa crus-galli, ECHCG); experiment: Post-emerge test, greenhouse herbicide activity screening; settings: post-emerge, 14 days after application, rating scale 0-100
How it was run: (§3)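 Applied at 15–1000 g ai/ha from acetone in 187 l/ha spray volume. Post-emergence applications included 0.25% v/v non-ionic surfactant and reached plants sown 8–21 days before. Pre-emergence applications were incorporated by surface watering. Efficacy or crop damage was rated on a 0–100 scale after 14 days.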

[14] = tested on: green foxtail (Setaria viridis, SETVI); experiment: as above; settings: post-emerge, 14 days after application, rating scale 0-100
How it was run: as §3

[15] = tested on: ivyleaf morningglory (Ipomoea hederacea, IPOHE); experiment: as above; settings: post-emerge, 14 days after application, rating scale 0-100
How it was run: as §3

[16] = tested on: johnsongrass (Sorghum halepense, SORHA); experiment: as above; settings: post-emerge, 14 days after application, rating scale 0-100
How it was run: as §3

[17] = tested on: lambsquarters (Chenopodium album, CHEAL); experiment: as above; settings: post-emerge, 14 days after application, rating scale 0-100
How it was run: as §3

[18] = tested on: large crabgrass (Digitaria sanguinalis, DIGSA); experiment: as above; settings: post-emerge, 14 days after application, rating scale 0-100
How it was run: as §3

[19] = tested on: redroot pigweed (Amaranthus retroflexus, AMARE); experiment: as above; settings: post-emerge, 14 days after application
How it was run: as §3

[20] = tested on: sicklepod (Cassia obtusifolia, CASOB); experiment: as above; settings: post-emerge, 14 days after application, rating scale 0-100
How it was run: as §3

[21] = tested on: velvetleaf (Abutilon theophrasti, ABUTH); experiment: as above; settings: post-emerge, 14 days after application, rating scale 0-100
How it was run: as §3

[22] = tested on: field corn (Zea mays L., var. Dekalb 535, CORN); experiment: Post-emerge test, crop safety; settings: post-emerge, 14 days after application, rating scale 0-100
How it was run: (§4)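 Each test used a mechanized track sprayer delivering 187 l/ha of acetone solution at 15–1000 g ai/ha. Post-emerge foliage at 2–3 leaves was treated with added 0.25% v/v non-ionic surfactant and bottom-watered only. Injury was assessed on day 14, where 100 means total kill.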

[23] = tested on: upland rice (Oryza sp., var. Tebonnet, RICE); experiment: Post-emerge test, crop safety; settings: post-emerge, 14 days after application, rating scale 0-100
How it was run: as §4

Cc1ccc(-n2c(=O)cc(C(F)(F)F)n(C)c2=O)c(NC(=O)c2ccc3ccccc3c2)c1 [2-201]
Pre-emerge Herbicidal Activity AMARE ([1]; 63 g ai/ha): 95 | Pre-emerge Herbicidal Activity AMARE ([1]; 250 g ai/ha): 95 | Pre-emerge Herbicidal Activity ECHCG ([2]; 63 g ai/ha): 15 | Pre-emerge Herbicidal Activity ECHCG ([2]; 250 g ai/ha): 75 | Pre-emerge Herbicidal Activity AMBEL ([3]; 63 g ai/ha): 30 | Pre-emerge Herbicidal Activity AMBEL ([3]; 250 g ai/ha): 80 | Pre-emerge Herbicidal Activity SETVI ([4]; 63 g ai/ha): 0 | Pre-emerge Herbicidal Activity SETVI ([4]; 250 g ai/ha): 75 | Pre-emerge Herbicidal Activity IPOHE ([5]; 63 g ai/ha): 55 | Pre-emerge Herbicidal Activity IPOHE ([5]; 250 g ai/ha): 80 | Pre-emerge Herbicidal Activity SORHA ([6]; 63 g ai/ha): 0 | Pre-emerge Herbicidal Activity SORHA ([6]; 250 g ai/ha): 30 | Pre-emerge Herbicidal Activity CHEAL ([7]; 63 g ai/ha): 98 | Pre-emerge Herbicidal Activity CHEAL ([7]; 250 g ai/ha): 100 | Pre-emerge Herbicidal Activity DIGSA ([8]; 63 g ai/ha): 45 | Pre-emerge Herbicidal Activity DIGSA ([8]; 250 g ai/ha): 95 | Pre-emerge Herbicidal Activity CASOB ([9]; 63 g ai/ha): 0 | Pre-emerge Herbicidal Activity CASOB ([9]; 250 g ai/ha): 0 | Pre-emerge Herbicidal Activity ABUTH ([10]; 63 g ai/ha): 98 | Pre-emerge Herbicidal Activity ABUTH ([10]; 250 g ai/ha): 100 | Pre-emerge Herbicidal Activity CORN ([11]; 63 g ai/ha): 0 | Pre-emerge Herbicidal Activity CORN ([11]; 250 g ai/ha): 0 | Pre-emerge Herbicidal Activity RICE ([12]; 63 g ai/ha): 0 | Pre-emerge Herbicidal Activity RICE ([12]; 250 g ai/ha): 30 | phytotoxicity rating ECHCG ([13]; 63 g ai/ha): 50 | phytotoxicity rating ECHCG ([13]; 250 g ai/ha): 60 | phytotoxicity rating SETVI ([14]; 63 g ai/ha): 20 | phytotoxicity rating SETVI ([14]; 250 g ai/ha): 30 | phytotoxicity rating IPOHE ([15]; 63 g ai/ha): 95 | phytotoxicity rating IPOHE ([15]; 250 g ai/ha): 95 | phytotoxicity rating SORHA ([16]; 63 g ai/ha): 0 | phytotoxicity rating SORHA ([16]; 250 g ai/ha): 0 | phytotoxicity rating CHEAL ([17]; 63 g ai/ha): 95 | phytotoxicity rating CHEAL ([17]; 250 g ai/ha): 98 | phytotoxicity rating DIGSA ([18]; 63 g ai/ha): 35 | phytotoxicity rating DIGSA ([18]; 250 g ai/ha): 45 | phytotoxicity rating AMARE ([19]; 63 g ai/ha, rating scale 0-100 (0 no damage, 100 complete death)): 99 | phytotoxicity rating AMARE ([19]; 250 g ai/ha, rating scale 0-100): 100 | phytotoxicity rating CASOB ([20]; 63 g ai/ha): 60 | phytotoxicity rating CASOB ([20]; 250 g ai/ha): 85 | phytotoxicity rating ABUTH ([21]; 63 g ai/ha): 95 | phytotoxicity rating ABUTH ([21]; 250 g ai/ha): 99 | phytotoxicity rating CORN (crop damage) ([22]; 63 g ai/ha): 30 | phytotoxicity rating CORN (crop damage) ([22]; 250 g ai/ha): 35 | phytotoxicity rating RICE (crop damage) ([23]; 63 g ai/ha): 60 | phytotoxicity rating RICE (crop damage) ([23]; 250 g ai/ha): 65
